Assays:
B. subtilis 168 [1] = experiment: fitness (endpoint OD595 vs no drug) (fraction); higher = more growth
Method in brief: (§1)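 With the first reading as background, OD595 was measured every 30 min for 14 h in 384-well plates kept at 37 °C and inoculated at OD595 0.01. TSB, LB Lennox or CY was the medium. Fitness is the optical density at the transition into stationary phase divided by the robust mean of no-drug control wells, with a cap of 1.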

S. aureus Newman [2] = experiment: as above
Method in brief: as §1

S. pneumoniae D39V [3] = experiment: as above
Method in brief: as §1

B. subtilis 168 [4] = experiment: Bliss interaction score (quartile over a dose matrix) (fitness difference); higher = more antagonism (negative = synergy)
Method in brief: (§2)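 Fitness was derived from optical density at entry into stationary phase, divided by the robust mean of the no-drug wells on the same plate. That reading was taken as OD595, and the ratio was capped at 1. Single-drug fitness was inferred from the combination data. The Bliss score, observed fitness minus the expected product of single-drug fitness, was summarised as quartiles over technical, biological and donor/recipient replicates.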

S. aureus DSM 20231 = experiment: as above
Method in brief: as §2

S. aureus Newman [5] = experiment: as above
Method in brief: as §2

S. pneumoniae D39V [6] = experiment: as above
Method in brief: as §2
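For Bliss interaction score (quartile over a dose matrix) in this document: first quartile when negative (synergy) and third quartile when positive (antagonism).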

O=C(O)c1cn(C2CC2)c2cc(N3CCNCC3)c(F)cc2c1=O [Ciprofloxacin] + O=C(O[C@@H]1Cc2c(O)cc(O)cc2O[C@@H]1c1cc(O)c(O)c(O)c1)c1cc(O)c(O)c(O)c1 [EGCG]
fitness
Conditions	partner 6.25 µg/mL	partner 12.5 µg/mL	partner 25 µg/mL	partner 50 µg/mL
B. subtilis 168 [1], first compound 0.0098 µg/mL	0.878	–	–	–
B. subtilis 168 [1], first compound 0.0195 µg/mL	0.741	0.54	0.375	–
B. subtilis 168 [1], first compound 0.039 µg/mL	–	0.35	0.295	–
S. aureus Newman [2], first compound 0.0375 µg/mL	–	0.666	0.557	0.544
S. aureus Newman [2], first compound 0.075 µg/mL	–	0.55	0.534	0.609
S. aureus Newman [2], first compound 0.15 µg/mL	–	0.0805	0.0356	0.053
S. pneumoniae D39V [3], first compound 0.125 µg/mL	–	0.931	0.907	0.971
S. pneumoniae D39V [3], first compound 0.25 µg/mL	–	0.796	0.889	0.69

Conditions	Bliss interaction score
B. subtilis 168 [4]	0.149
S. aureus DSM 20231	0.0949
S. aureus Newman [5]	-0.0544
S. pneumoniae D39V [6]	-0.0717

O=C(O)c1cn(C2CC2)c2cc(N3CCNCC3)c(F)cc2c1=O [Ciprofloxacin] + Cc1ncc([N+](=O)[O-])n1CCO [Metronidazole]
Conditions	fitness
B. subtilis 168 [1], first compound 0.0098 µg/mL, partner 0.625 µg/mL	0.951
B. subtilis 168 [1], first compound 0.0098 µg/mL, partner 1.25 µg/mL	0.922
B. subtilis 168 [1], first compound 0.0098 µg/mL, partner 2.5 µg/mL	0.89
B. subtilis 168 [1], first compound 0.0195 µg/mL, partner 0.625 µg/mL	0.771
B. subtilis 168 [1], first compound 0.0195 µg/mL, partner 1.25 µg/mL	0.75
B. subtilis 168 [1], first compound 0.0195 µg/mL, partner 2.5 µg/mL	0.727
B. subtilis 168 [1], first compound 0.039 µg/mL, partner 1.25 µg/mL	0.29
B. subtilis 168 [1], first compound 0.039 µg/mL, partner 2.5 µg/mL	0.222
S. aureus Newman [2], first compound 0.0375 µg/mL, partner 0.625 µg/mL	0.649
S. aureus Newman [2], first compound 0.0375 µg/mL, partner 1.25 µg/mL	0.694
S. aureus Newman [2], first compound 0.0375 µg/mL, partner 2.5 µg/mL	0.693
S. aureus Newman [2], first compound 0.075 µg/mL, partner 0.625 µg/mL	0.725
S. aureus Newman [2], first compound 0.075 µg/mL, partner 2.5 µg/mL	0.732
S. aureus Newman [2], first compound 0.15 µg/mL, partner 2.5 µg/mL	0.0713
S. pneumoniae D39V [3], first compound 0.125 µg/mL, partner 1.073 µg/mL	0.935
S. pneumoniae D39V [3], first compound 0.125 µg/mL, partner 1.25 µg/mL	0.98
S. pneumoniae D39V [3], first compound 0.125 µg/mL, partner 2.145 µg/mL	0.894
S. pneumoniae D39V [3], first compound 0.125 µg/mL, partner 2.5 µg/mL	0.987
S. pneumoniae D39V [3], first compound 0.125 µg/mL, partner 4.29 µg/mL	0.916
S. pneumoniae D39V [3], first compound 0.125 µg/mL, partner 5 µg/mL	0.983
S. pneumoniae D39V [3], first compound 0.25 µg/mL, partner 1.073 µg/mL	0.923
S. pneumoniae D39V [3], first compound 0.25 µg/mL, partner 2.145 µg/mL	0.895
S. pneumoniae D39V [3], first compound 0.25 µg/mL, partner 4.29 µg/mL	0.892
S. pneumoniae D39V [3], first compound 0.5 µg/mL, partner 1.073 µg/mL	0.711
S. pneumoniae D39V [3], first compound 0.5 µg/mL, partner 2.5 µg/mL	0.781
S. pneumoniae D39V [3], first compound 0.5 µg/mL, partner 4.29 µg/mL	0.69
S. pneumoniae D39V [3], first compound 0.5 µg/mL, partner 5 µg/mL	0.81

fitness, one replicate
Conditions	partner 0.781 µg/mL	partner 1.25 µg/mL	partner 1.562 µg/mL	partner 2.5 µg/mL	partner 3.124 µg/mL	partner 5 µg/mL
S. aureus Newman [2], first compound 0.0375 µg/mL	0.653	–	0.663	–	0.644	–
S. aureus Newman [2], first compound 0.075 µg/mL	0.648	–	0.736	–	0.703	–
S. aureus Newman [2], first compound 0.15 µg/mL	0.0339	–	0.0507	–	0.0416	–
S. pneumoniae D39V [3], first compound 0.25 µg/mL	–	0.903	–	0.911	–	0.902

Conditions	Bliss interaction score
B. subtilis 168 [4]	0.0696
S. aureus DSM 20231	0.0471
S. aureus Newman [5]	0.0782
S. pneumoniae D39V [6]	0.0544

O=C(O)c1cn(C2CC2)c2cc(N3CCNCC3)c(F)cc2c1=O [Ciprofloxacin] + CC(C1CCC(C(O1)OC2C(CC(C(C2O)OC3C(C(C(CO3)(C)O)NC)O)N)N)N)NC [Gentamicin]
main component drawn
Conditions	fitness
B. subtilis 168 [1], first compound 0.0098 µg/mL, partner 0.0625 µg/mL	0.881
B. subtilis 168 [1], first compound 0.0195 µg/mL, partner 0.0625 µg/mL	0.703
B. subtilis 168 [1], first compound 0.039 µg/mL, partner 0.25 µg/mL	0.117
S. aureus Newman [2], first compound 0.0375 µg/mL, partner 0.5 µg/mL	0.786
S. aureus Newman [2], first compound 0.0375 µg/mL, partner 1 µg/mL	0.877
S. aureus Newman [2], first compound 0.0375 µg/mL, partner 2 µg/mL	0.917
S. aureus Newman [2], first compound 0.075 µg/mL, partner 0.5 µg/mL	0.74
S. aureus Newman [2], first compound 0.075 µg/mL, partner 1 µg/mL	0.786
S. aureus Newman [2], first compound 0.075 µg/mL, partner 2 µg/mL	0.783
S. aureus Newman [2], first compound 0.15 µg/mL, partner 0.5 µg/mL	0.43
S. pneumoniae D39V [3], first compound 0.125 µg/mL, partner 2 µg/mL	0.954
S. pneumoniae D39V [3], first compound 0.125 µg/mL, partner 4 µg/mL	0.92
S. pneumoniae D39V [3], first compound 0.125 µg/mL, partner 8 µg/mL	0.884
S. pneumoniae D39V [3], first compound 0.25 µg/mL, partner 2 µg/mL	0.792
S. pneumoniae D39V [3], first compound 0.25 µg/mL, partner 4 µg/mL	0.766
S. pneumoniae D39V [3], first compound 0.25 µg/mL, partner 8 µg/mL	0.677

fitness, S. aureus Newman [2], one replicate, main component drawn
Conditions	first compound 0.0375 µg/mL	first compound 0.075 µg/mL	first compound 0.15 µg/mL
partner 0.375 µg/mL	0.704	0.787	0.0591
partner 0.75 µg/mL	0.712	0.728	0.0774
partner 1.5 µg/mL	0.639	0.175	0.0856

main component drawn
Conditions	Bliss interaction score
B. subtilis 168 [4]	0.19
S. aureus DSM 20231	0.0655
S. aureus Newman [5]	0.12
S. pneumoniae D39V [6]	-0.0953

O=C(O)c1cn(C2CC2)c2cc(N3CCNCC3)c(F)cc2c1=O [Ciprofloxacin] + COc1ccc(C[C@H](N)C(=O)N[C@H]2[C@@H](O)[C@H](n3cnc4c(N(C)C)ncnc43)O[C@@H]2CO)cc1 [Puromycin]
Conditions	fitness
B. subtilis 168 [1], first compound 0.0098 µg/mL, partner 0.39 µg/mL	0.918
B. subtilis 168 [1], first compound 0.0098 µg/mL, partner 0.78 µg/mL	0.956
B. subtilis 168 [1], first compound 0.0098 µg/mL, partner 1.56 µg/mL	0.842
B. subtilis 168 [1], first compound 0.0195 µg/mL, partner 0.39 µg/mL	0.721
B. subtilis 168 [1], first compound 0.0195 µg/mL, partner 0.78 µg/mL	0.721
B. subtilis 168 [1], first compound 0.0195 µg/mL, partner 1.56 µg/mL	0.683
B. subtilis 168 [1], first compound 0.039 µg/mL, partner 0.39 µg/mL	0.0586
B. subtilis 168 [1], first compound 0.039 µg/mL, partner 0.78 µg/mL	0.0556
B. subtilis 168 [1], first compound 0.039 µg/mL, partner 1.56 µg/mL	0.0555
S. aureus Newman [2], first compound 0.0375 µg/mL, partner 0.39 µg/mL	0.679
S. aureus Newman [2], first compound 0.0375 µg/mL, partner 0.78 µg/mL	0.635
S. aureus Newman [2], first compound 0.0375 µg/mL, partner 1.56 µg/mL	0.651
S. aureus Newman [2], first compound 0.075 µg/mL, partner 0.39 µg/mL	0.577
S. aureus Newman [2], first compound 0.075 µg/mL, partner 0.78 µg/mL	0.522
S. aureus Newman [2], first compound 0.075 µg/mL, partner 1.56 µg/mL	0.422
S. aureus Newman [2], first compound 0.15 µg/mL, partner 0.39 µg/mL	0.0435
S. aureus Newman [2], first compound 0.15 µg/mL, partner 0.78 µg/mL	0.0274
S. aureus Newman [2], first compound 0.15 µg/mL, partner 1.56 µg/mL	0.0296
S. pneumoniae D39V [3], first compound 0.125 µg/mL, partner 1 µg/mL	0.944
S. pneumoniae D39V [3], first compound 0.125 µg/mL, partner 2 µg/mL	0.92
S. pneumoniae D39V [3], first compound 0.125 µg/mL, partner 4 µg/mL	0.492
S. pneumoniae D39V [3], first compound 0.25 µg/mL, partner 1 µg/mL	0.808
S. pneumoniae D39V [3], first compound 0.25 µg/mL, partner 2 µg/mL	0.846
S. pneumoniae D39V [3], first compound 0.25 µg/mL, partner 4 µg/mL	0.51
S. pneumoniae D39V [3], first compound 0.5 µg/mL, partner 4 µg/mL	0.347

Conditions	Bliss interaction score
B. subtilis 168 [4]	-0.118
S. aureus DSM 20231	-0.135
S. aureus Newman [5]	-0.132
S. pneumoniae D39V [6]	-0.0901

O=C(O)c1cn(C2CC2)c2cc(N3CCNCC3)c(F)cc2c1=O [Ciprofloxacin] + COc1cccc2c1C(=O)c1c(O)c3c(c(O)c1C2=O)C[C@@](O)(C(=O)CO)C[C@@H]3O[C@H]1C[C@H](N)[C@H](O)[C@H](C)O1 [Doxorubicin]
Conditions	fitness
B. subtilis 168 [1], first compound 0.0098 µg/mL, partner 0.625 µg/mL	0.908
B. subtilis 168 [1], first compound 0.0098 µg/mL, partner 1.25 µg/mL	0.872
B. subtilis 168 [1], first compound 0.0195 µg/mL, partner 0.625 µg/mL	0.702
B. subtilis 168 [1], first compound 0.0195 µg/mL, partner 1.25 µg/mL	0.628
B. subtilis 168 [1], first compound 0.039 µg/mL, partner 0.625 µg/mL	0.186
B. subtilis 168 [1], first compound 0.039 µg/mL, partner 1.25 µg/mL	0.131
B. subtilis 168 [1], first compound 0.039 µg/mL, partner 2.5 µg/mL	0.037
S. aureus Newman [2], first compound 0.0375 µg/mL, partner 0.625 µg/mL	0.634
S. aureus Newman [2], first compound 0.0375 µg/mL, partner 1.25 µg/mL	0.667
S. aureus Newman [2], first compound 0.0375 µg/mL, partner 2.5 µg/mL	0.658
S. aureus Newman [2], first compound 0.075 µg/mL, partner 0.625 µg/mL	0.689
S. aureus Newman [2], first compound 0.075 µg/mL, partner 1.25 µg/mL	0.698
S. aureus Newman [2], first compound 0.075 µg/mL, partner 2.5 µg/mL	0.642
S. aureus Newman [2], first compound 0.15 µg/mL, partner 1.25 µg/mL	0.203
S. aureus Newman [2], first compound 0.15 µg/mL, partner 2.5 µg/mL	0.15
S. pneumoniae D39V [3], first compound 0.125 µg/mL, partner 0.25 µg/mL	0.899
S. pneumoniae D39V [3], first compound 0.125 µg/mL, partner 0.5 µg/mL	0.914
S. pneumoniae D39V [3], first compound 0.125 µg/mL, partner 1 µg/mL	0.821
S. pneumoniae D39V [3], first compound 0.25 µg/mL, partner 0.25 µg/mL	0.745
S. pneumoniae D39V [3], first compound 0.25 µg/mL, partner 0.5 µg/mL	0.774
S. pneumoniae D39V [3], first compound 0.25 µg/mL, partner 1 µg/mL	0.694

Conditions	Bliss interaction score
B. subtilis 168 [4]	-0.0827
S. aureus DSM 20231	0.154
S. aureus Newman [5]	0.193
S. pneumoniae D39V [6]	-0.0454

Reference: the supplement of paper PMC10627819
